Measurements published in patent US20250059220A1, “SUBSTITUTED BENZOTHIOPHENE DERIVATIVES AND METHODS OF USE THEREOF” (Merck Sharp & Dohme LLC, priority 2021, published 2025).

Legend:
[1] = molecular target: human PTPN1 (1-435) (Homo sapiens (Human), UniProt P18031); assay: Human PTPN1 Biochemical Assay; conditions: DiFMUP substrate, read-out: PTP1B IC50
Summary of the method: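 Read-out is DiFMUP hydrolysis fluorescence (360 nm excitation, 460 nm emission) after 1 h at room temperature, following 30 min enzyme–compound preincubation.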

[2] = molecular target: human PTPN2 (1-387) (Homo sapiens (Human), UniProt P17706); assay: Human PTPN2 Biochemical Assay; conditions: DiFMUP substrate
Chain of human PTPN2 (1-387) (P17706 other isoform, or with tags, fused parts or gaps): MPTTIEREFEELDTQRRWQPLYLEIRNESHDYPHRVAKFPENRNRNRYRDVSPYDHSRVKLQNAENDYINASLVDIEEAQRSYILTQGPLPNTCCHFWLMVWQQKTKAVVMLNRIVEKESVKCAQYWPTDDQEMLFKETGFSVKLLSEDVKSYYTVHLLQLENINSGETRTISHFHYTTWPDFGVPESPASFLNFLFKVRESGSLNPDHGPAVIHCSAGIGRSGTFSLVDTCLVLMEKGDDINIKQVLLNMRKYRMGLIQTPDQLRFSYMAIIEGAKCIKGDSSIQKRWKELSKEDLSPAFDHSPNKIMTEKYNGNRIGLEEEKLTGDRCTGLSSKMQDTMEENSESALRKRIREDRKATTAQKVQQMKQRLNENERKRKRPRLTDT
Summary of the method: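 Fluorogenic DiFMUP hydrolysis (1 h, room temperature, read ex 360/em 460 nm) after 30 min compound preincubation with PTPN2 residues 1-387, in 50 mM Tris pH 7.4, 150 mM NaCl, 0.01% Tween20, 0.5 mM DTT. Effects scaled between buffer and enzyme controls, 4-parameter fit gives EC50.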

Chain of human PTPN1 (1-435) (P18031 whole entry): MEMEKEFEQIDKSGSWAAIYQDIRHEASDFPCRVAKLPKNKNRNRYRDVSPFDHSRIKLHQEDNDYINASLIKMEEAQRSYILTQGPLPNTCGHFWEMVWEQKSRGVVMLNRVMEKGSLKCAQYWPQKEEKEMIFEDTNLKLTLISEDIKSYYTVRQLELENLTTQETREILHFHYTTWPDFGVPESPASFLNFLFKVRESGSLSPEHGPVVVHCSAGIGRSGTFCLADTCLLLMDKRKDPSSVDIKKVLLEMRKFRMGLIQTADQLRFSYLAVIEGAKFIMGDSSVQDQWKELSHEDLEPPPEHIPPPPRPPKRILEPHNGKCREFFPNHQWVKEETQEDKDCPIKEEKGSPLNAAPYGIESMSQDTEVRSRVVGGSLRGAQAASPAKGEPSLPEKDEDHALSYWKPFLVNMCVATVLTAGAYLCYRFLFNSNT

Row | Compound | IC50 [1] [nM] | IC50 [2] [nM]
1 | NC(=O)c1cc(NCCCS(N)(=O)=O)c2sc(C(F)(F)P(=O)(O)O)c(Br)c2c1 [Compound 312] | 79.1 | 71.2
2 | NC(=O)c1cc(CCc2ccccc2)c2sc(C(F)(F)P(=O)(O)O)c(Br)c2c1 [Compound 313] | 146 | 132
3 | C[Si](C)(C)CCc1cc(C(N)=O)cc2c(Br)c(C(F)(F)P(=O)(O)O)sc12 [Compound 314] | 47.5 | 52.6
4 | NC(=O)c1cc(OCC2CC2(F)F)c2sc(C(F)(F)P(=O)(O)O)c(Br)c2c1 (stereo not drawn) [Compound 315] | 23.4 | 21.8
5 | NC(=O)c1cc(OCC2CC2(F)F)c2sc(C(F)(F)P(=O)(O)O)c(Br)c2c1 (stereo not drawn) [Compound 316] | 68.1 | 50.4
6 | NC(=O)c1cc(OCCC2CCC2)c2sc(C(F)(F)P(=O)(O)O)c(Br)c2c1 [Compound 317] | 68.4 | 68.5
7 | CS(=O)(=O)CCCCOc1cc(C(N)=O)cc2c(Br)c(C(F)(F)P(=O)(O)O)sc12 [Compound 318] | 52.6 | 34.8
8 | CNC(=O)c1cc(OCCCS(C)(=O)=O)c2sc(C(F)(F)P(=O)(O)O)c(Br)c2c1 [Compound 319] | 9.2 | 9.67
9 | CNC(=O)c1cc(OCCCS(N)(=O)=O)c2sc(C(F)(F)P(=O)(O)O)c(Br)c2c1 [Compound 320] | 7.5 | 6.81
10 | CNC(=O)c1cc(OCC2CC2(F)F)c2sc(C(F)(F)P(=O)(O)O)c(Br)c2c1 (stereo not drawn) [Compound 321] | 25.1 | 24.1
11 | CNC(=O)c1cc(OCCC2CC2(F)F)c2sc(C(F)(F)P(=O)(O)O)c(Br)c2c1 (stereo not drawn) [Compound 322] | 20.9 | 29.2
12 | CNC(=O)c1cc(OCCCNS(C)(=O)=O)c2sc(C(F)(F)P(=O)(O)O)c(Br)c2c1 [Compound 323] | 44 | 55.4
13 | CNC(=O)c1cc(OCCCCS(C)(=O)=O)c2sc(C(F)(F)P(=O)(O)O)c(Br)c2c1 [Compound 324] | 41 | 29.9
14 | CNC(=O)c1cc(OCCC(C)(F)F)c2sc(C(F)(F)P(=O)(O)O)c(Br)c2c1 [Compound 325] | 183 | 385
15 | CNC(=O)c1cc(OCCCC(C)(F)F)c2sc(C(F)(F)P(=O)(O)O)c(Br)c2c1 [Compound 326] | 2.5 | 16.1
16 | CC(F)(F)CCOc1cc(C(N)=O)cc2c(Br)c(C(F)(F)P(=O)(O)O)sc12 [Compound 327] | 233 | 266
17 | N#CCCNC(=O)c1cc(OCCCS(N)(=O)=O)c2sc(C(F)(F)P(=O)(O)O)c(Br)c2c1 [Compound 328] | 7.9 | 7.83
18 | N#CCCNC(=O)c1cc(OCCCC(F)(F)F)c2sc(C(F)(F)P(=O)(O)O)c(Br)c2c1 [Compound 329] | 18.1 | 14.1
19 | CS(=O)(=O)CCCOc1cc(C(=O)NCCC#N)cc2c(Br)c(C(F)(F)P(=O)(O)O)sc12 [Compound 330] | 9.2 | 10.4
20 | NC(=O)c1cc(OCCCC2(O)CC2)c2sc(C(F)(F)P(=O)(O)O)c(Br)c2c1 [Compound 331] | 28.8 | 23.8
21 | CCC(=O)CCCOc1cc(C(N)=O)cc2c(Br)c(C(F)(F)P(=O)(O)O)sc12 [Compound 332] | 29.9 | 28.1
22 | CS(=O)(=O)CCCOc1cc(C(N)=O)cc2c(Cl)c(C(F)(F)P(=O)(O)O)sc12 [Compound 333] | 37 | 42.1
23 | NC(=O)c1cc(OCCCNS(=O)(=O)C(F)(F)F)c2sc(C(F)(F)P(=O)(O)O)c(Br)c2c1 [Compound 334] | 65.8 | 77.7
24 | NC(=O)c1cc(OCCCC2(S(N)(=O)=O)CC2)c2sc(C(F)(F)P(=O)(O)O)c(Br)c2c1 [Compound 335] | 5.4 | 4.4
25 | NC(=O)c1cc(OCc2ccc(F)cc2C(F)(F)F)c2sc(C(F)(F)P(=O)(O)O)c(Br)c2c1 [Compound 336] | 160 | 88.6
26 | Cc1ccc(COc2cc(C(N)=O)cc3c(Br)c(C(F)(F)P(=O)(O)O)sc23)c(C)c1 [Compound 337] | 158 | 83.3

Row | Compound | IC50 [1] [nM] | IC50 [2] [nM]
27 | NC(=O)c1cc(OCc2ccc(C(F)(F)F)cc2F)c2sc(C(F)(F)P(=O)(O)O)c(Br)c2c1 [Compound 338] | 74.4 | 51.2
28 | NC(=O)c1cc(OCc2ccc(OC(F)(F)F)cc2)c2sc(C(F)(F)P(=O)(O)O)c(Br)c2c1 [Compound 339] | 45.3 | 24.4
29 | NC(=O)c1cc(OCc2ccc(C(F)(F)F)cc2C(F)(F)F)c2sc(C(F)(F)P(=O)(O)O)c(Br)c2c1 [Compound 340] | 283 | 116
30 | N#Cc1cc(Cl)ccc1COc1cc(C(N)=O)cc2c(Br)c(C(F)(F)P(=O)(O)O)sc12 [Compound 341] | 94.3 | 46.7
31 | NC(=O)c1cc(OCc2ccc(F)cc2OC(F)F)c2sc(C(F)(F)P(=O)(O)O)c(Br)c2c1 [Compound 342] | 131 | 75.1
32 | NC(=O)c1cc(OCc2ccc(-c3ncccn3)cc2)c2sc(C(F)(F)P(=O)(O)O)c(Br)c2c1 [Compound 343] | 128 | 19.3
33 | Cc1ccc(COc2cc(C(N)=O)cc3c(Br)c(C(F)(F)P(=O)(O)O)sc23)cc1C(F)(F)F [Compound 344] | 195 | 117
34 | NC(=O)c1cc(OCc2ccc(C(F)(F)F)cc2)c2sc(C(F)(F)P(=O)(O)O)c(Br)c2c1 [Compound 345] | 29.5 | 16.3
35 | NC(=O)c1cc(OCc2ccc(-c3ccccc3)cc2)c2sc(C(F)(F)P(=O)(O)O)c(Br)c2c1 [Compound 346] | 16.4 | 2.5
36 | NC(=O)c1cc(OCc2ccc(Cl)c(Cl)c2)c2sc(C(F)(F)P(=O)(O)O)c(Br)c2c1 [Compound 347] | 36.5 | 23.8
37 | COc1ccc(COc2cc(C(N)=O)cc3c(Br)c(C(F)(F)P(=O)(O)O)sc23)c(C(F)(F)F)c1 [Compound 348] | 177 | 75.7
38 | COc1ccc(COc2cc(C(N)=O)cc3c(Br)c(C(F)(F)P(=O)(O)O)sc23)cc1F [Compound 349] | 26.9 | 22
39 | NC(=O)c1cc(OCc2ccc(C3CCN(CC(F)(F)F)CC3)cc2)c2sc(C(F)(F)P(=O)(O)O)c(Br)c2c1 [Compound 350] | 406 | 159
40 | NC(=O)c1cc(OCc2ccc(F)c(C(F)(F)F)c2)c2sc(C(F)(F)P(=O)(O)O)c(Br)c2c1 [Compound 351] | 174 | 104
41 | Cc1cc(C)c(COc2cc(C(N)=O)cc3c(Br)c(C(F)(F)P(=O)(O)O)sc23)c(C)c1 [Compound 352] | 692 | 364
42 | NC(=O)c1cc(OCc2ccc(-n3cncn3)cc2)c2sc(C(F)(F)P(=O)(O)O)c(Br)c2c1 [Compound 353] | 140 | 38.5
43 | NC(=O)c1cc(OCc2ccc(-c3nccs3)cc2)c2sc(C(F)(F)P(=O)(O)O)c(Br)c2c1 [Compound 354] | 69.7 | 9.6
44 | NC(=O)c1cc(OCc2ccc(-n3ccnc3)cc2)c2sc(C(F)(F)P(=O)(O)O)c(Br)c2c1 [Compound 355] | 118 | 16.3
45 | NC(=O)c1cc(OCc2ccc(F)c(F)c2)c2sc(C(F)(F)P(=O)(O)O)c(Br)c2c1 [Compound 356] | 20.5 | 15.9
46 | NC(=O)c1cc(OCc2ccc(C(F)(F)F)c(F)c2)c2sc(C(F)(F)P(=O)(O)O)c(Br)c2c1 [Compound 357] | 21.7 | 13.7
47 | CC(C)(C)c1ccc(COc2cc(C(N)=O)cc3c(Br)c(C(F)(F)P(=O)(O)O)sc23)cc1 [Compound 359] | 109 | 35.2
48 | NC(=O)c1cc(OCc2ccc(OC(F)F)cc2)c2sc(C(F)(F)P(=O)(O)O)c(Br)c2c1 [Compound 360] | 25.2 | 12.9
49 | COc1ccc(COc2cc(C(N)=O)cc3c(Br)c(C(F)(F)P(=O)(O)O)sc23)cc1C(F)(F)F [Compound 361] | 133 | 54.6
50 | COc1cc(Cl)ccc1COc1cc(C(N)=O)cc2c(Br)c(C(F)(F)P(=O)(O)O)sc12 [Compound 362] | 76.7 | 42.8
51 | COc1cc(COc2cc(C(N)=O)cc3c(Br)c(C(F)(F)P(=O)(O)O)sc23)ccc1C#N [Compound 363] | 152 | 112
